Reference: patent US10702495B2, “Method and compositions for treating dystrophies and myotonia” (priority 2017, dated 2020)

Assays:
dystrophic mdx mice = conditions: injection; mostly via activation of TRPV1 and TRPA1; cited from earlier work
patients with myotonia = test: Disease history: previous treatments for myotonia and myalgia (case reports); conditions: for effect of previous treatment on myotonia, patient 6: CLCN1-congenital myotonia; for effect of previous treatment on myotonia, patient 6 / outcome of previous treatment of myotonia, patient 2 / outcome of previous treatment of myalgia, patient 2: disease history; for outcome of previous treatment of myotonia, patient 2 / outcome of previous treatment of myalgia, patient 2: DM2
Excerpt: This person was diagnosed with DM2. As DM2-related comorbidities they have diabetes mellitus type 2 without diabetic neuropathy, and controlled paroxysmal atrial fibrillation. Their main muscular complaints have always been a severe grip myotonia and myotonia of the legs while walking, as well as persistent myalgia especially at lower back. In the last several years they developed a proximal and axial muscle weakness (MRC grade 4). […] After discussing potential risks and benefits, a compassionate use with low dose CBD/THC has been started.
This person was diagnosed with CLCN1-congenital myotonia. They have a severe therapy-resistant grip and generalized myotonia.

Structure (SMILES)	effect of previous treatment on myotonia, patient 6 (patients with myotonia)	outcome of previous treatment of myotonia, patient 2 (patients with myotonia)	outcome of previous treatment of myalgia, patient 2 (patients with myotonia)	also measured
C=C(C)[C@@H]1CCC(C)=C[C@H]1c1c(O)cc(CCCCC)cc1O [CBD, Cannabidiol]	–	–	–	myotube formation and inflammation (dystrophic mdx mice): promoted myotube formation and reduced inflammation
NC(=O)N1c2ccccc2C=Cc2ccccc21 [carbamazepine]	no relevant improvement of myotonia was obtained	suspended due to inefficacy and risk of cardiac arrhythmias	–	–
O=C(NCC1CCCCN1)c1cc(OCC(F)(F)F)ccc1OCC(F)(F)F (stereo not shown) [flecainid]	no relevant improvement of myotonia was obtained	–	–	–
CC(C)Cc1ccc(C(C)C(=O)O)cc1 (stereo not shown) [ibuprofen]	–	–	unsuccessfully treated	–
Nc1nnc(-c2cccc(Cl)c2Cl)c(N)n1 [lamotrigine]	no relevant improvement of myotonia was obtained	–	–	–
COc1ccccc1OCC(O)COC(N)=O (stereo not shown) [methocarbamol]	–	–	unsuccessfully treated	–
Cc1cccc(C)c1OCC(C)N (stereo not shown) [mexiletine]	improved the myotonia	suspended due to inefficacy and risk of cardiac arrhythmias	–	drug-related side effect of previous treatment, patient 6 (patients with myotonia; resolved on drug discontinuation): severe major depression
CC(C)C[C@H](CN)CC(=O)O [pregabalin]	–	suspended due to inefficacy and risk of cardiac arrhythmias	unsuccessfully treated	–
Cc1ccc(C(=O)C(C)CN2CCCCC2)cc1 (stereo not shown) [tolperisone]	no relevant improvement of myotonia was obtained	–	–	–
